Results on 13 molecules are retold here after patent EP2914280B1, “SOMATOSTATIN-DOPAMINE CHIMERIC ANALOGS” (IPSEN PHARMA S.A.S., priority 2012, dated 2014).

Where two headings read alike, the source gives them in different places. Numbered stars: 1 amine (or outer) side, 2 acyl side, 3 side chain; on linkers, the order of the positions; unused ones are H or OH. Bridge positions count the residues as written; N and C are the ends. Square brackets hold non-standard residues; d marks the D form. Peptide text beside a SMILES is read from it. * marks the point of attachment. X1 = CN1C[C@H](CSCCN(CCSC[C@@H]2C[C@@H]3c4cccc5[nH]cc(c45)C[C@H]3N(C)C2)[C@H](CCCCN[*:2])C(=O)[*:1])C[C@@H]2c3cccc4[nH]cc(c34)C[C@H]21; X2 = CN1C[C@H](CSCC(=O)*)C[C@@H]2c3cccc4[nH]cc(c34)C[C@H]21; Phe(4-F) = N[C@@H](Cc1ccc(F)cc1)C(=O)O; dDab = NCC[C@@H](N)C(=O)O

Experiment [1] addresses T1, hDRD2 (Homo sapiens, UniProt P14416). Description: biochemical. Also on record: expressed in transfected cells; host or cells: CHO-K1, pcDNA3.1/GS, zeocin-selected clonal line; membranes. It is filed as binding.
Experiment [2] concerns the target T2, hSSTR2 (Homo sapiens, UniProt P30874).
T2 construct: host or cells: 'Cells expressing hSSTR2'
The experiment is described as follows: Intracellular calcium mobilization assay (FLIPR Calcium 4), hSSTR2.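 Also: agonist activity measured in cells expressing hSSTR2, seeded in 384-well plates, loaded with Calcium 4 dye, read-out as rise in intracellular calcium.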 It is filed as cell-based. For orientation: Calcium assays in cells follow changes in intracellular calcium, usually with a dye or a luminescent sensor.
Method: (§1) The ability of select compounds according to the present invention to activate hSSTR2 and hDRD2 was determined by the intracellular calcium mobilization assay using FLIPR Calcium 4 assay kit (Molecular Devices).
(§2) Cells expressing hSSTR2 or hDRD2 were plated in 384-well microplates in tissue culture media and incubated for 16-24 hours at 37°C in a humidified atmosphere with 5% CO2. Medium was replaced by loading buffer containing Hank's buffered saline, 20 mM HEPES, 2.5 mM probenecid and Calcium 4 dye, and the plates were incubated at 37°C for 60 minutes.

Experiment [3] deals with T1, hDRD2. The experiment is described as follows: cell-based. The following applies: for Emax: read-out: hDRD2 %Emax ± SEM. Also on record: host or cells: 'Cells expressing hDRD2'.
Method: as §1, §2
Experiment [4] concerns the target T2, hSSTR2. Description: Somatostatin receptor radioligand binding assay (hSSTR2).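 Also: radioligand displacement on membranes of CHO-K1 cells stably transfected with human SSTR2, specific binding taken as total minus binding left with 1000 nM SRIF-14.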
Where [5] appears, read: CHO-K1 cell membranes, […] [3H]-spiperone, 60 minutes at 25°C, read-out: hDRD2 Ki (nM) ± SEM.

T2 sequence (P30874 whole entry): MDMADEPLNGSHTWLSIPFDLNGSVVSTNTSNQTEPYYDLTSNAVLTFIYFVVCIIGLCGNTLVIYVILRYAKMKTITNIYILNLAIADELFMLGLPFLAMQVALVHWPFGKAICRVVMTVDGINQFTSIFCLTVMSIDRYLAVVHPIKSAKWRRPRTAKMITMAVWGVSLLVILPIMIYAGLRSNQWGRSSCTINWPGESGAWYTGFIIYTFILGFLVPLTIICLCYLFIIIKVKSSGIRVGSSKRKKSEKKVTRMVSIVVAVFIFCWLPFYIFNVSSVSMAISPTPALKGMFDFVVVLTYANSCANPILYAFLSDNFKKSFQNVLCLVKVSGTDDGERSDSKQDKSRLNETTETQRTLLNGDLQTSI
T1 sequence (P14416 whole entry): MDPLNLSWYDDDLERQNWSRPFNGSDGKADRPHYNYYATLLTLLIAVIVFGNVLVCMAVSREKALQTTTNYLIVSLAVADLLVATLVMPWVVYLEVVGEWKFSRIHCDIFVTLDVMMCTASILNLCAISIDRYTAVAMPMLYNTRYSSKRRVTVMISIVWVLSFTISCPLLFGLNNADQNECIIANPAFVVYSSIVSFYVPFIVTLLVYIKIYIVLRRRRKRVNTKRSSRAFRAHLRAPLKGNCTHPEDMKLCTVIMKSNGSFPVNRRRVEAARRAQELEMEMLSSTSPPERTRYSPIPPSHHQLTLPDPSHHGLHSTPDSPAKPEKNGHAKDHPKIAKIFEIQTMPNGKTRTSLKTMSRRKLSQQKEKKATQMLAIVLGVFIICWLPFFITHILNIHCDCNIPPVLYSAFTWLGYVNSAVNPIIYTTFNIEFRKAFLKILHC

In the case of `C[C@@H](O)[C@@H]1NC(=O)[C@H](CCCCN)NC(=O)[C@@H](Cc2c[nH]c3ccccc23)NC(=O)[C@H](Cc2ccncc2)NC(=O)[C@H](Cc2ccccc2)NC(=O)[C@H](CCCNC(=N)N)NC(=O)[C@H](NCCSC[C@@H]2C[C@@H]3c4cccc5[nH]cc(c45)C[C@H]3N(C)C2)CCCCNC(=O)[C@H](Cc2ccccc2)NC1=O` [Compound 23, Dop1-psi(CH2NH)-cyclo(DLys-Arg-Phe-4Pal-DTrp-Lys-Thr-Phe)], the Ki (commonly a dissociation constant, usually derived from enzyme kinetics or from competition with a known ligand) was determined as 328 ± 19.3 nM in experiment [1] and 0.09 nM in experiment [4]. Moreover, the results for the EC50 in experiment [2] and in experiment [3] were 2.4 ± 0.1 nM and 34.2 ± 13.7 nM, respectively. Moreover, the “improvement in EC50 over Reference Compound A” value in experiment [2] (p value (Student's t-test, one-tailed) < 0.05, receptor not named) is listed as “statistically significant improvement in EC50”. Further, in experiment [3], the Emax (as a rule, the maximal effect, on the per cent scale that the assay sets) was found to be 96.4 ± 5.3%.
For `C[C@@H](O)[C@@H]1NC(=O)[C@H](CCCCN)NC(=O)[C@@H](Cc2c[nH]c3ccccc23)NC(=O)[C@H](Cc2ccccc2)NC(=O)[C@H](Cc2ccccc2)NC(=O)[C@H](CCCNC(=N)N)NC(=O)[C@H](NCCSC[C@@H]2C[C@@H]3c4cccc5[nH]cc(c45)C[C@H]3N(C)C2)CCCCNC(=O)[C@H](Cc2c(F)c(F)c(F)c(F)c2F)NC1=O` [Compound 6E, Dop1-psi(CH2NH)-cyclo(DLys-Arg-Phe-Phe-DTrp-Lys-Thr-2,3,4,5,6FPhe)], the Ki stood at 40.4 ± 13.2 nM in experiment [1] and 5.48 ± 3.38 nM in experiment [4]. The values for the EC50 in experiment [2] and in experiment [3] were 223 ± 13.7 nM and 480 ± 125 nM, respectively. In addition, the Emax in experiment [3] is 54.1 ± 20.6%.
For `CC(=O)N(CCCNC[C@@H]1C[C@@H]2c3cccc4[nH]cc(c34)C[C@H]2N(C)C1)[C@@H]1CCCCNC(=O)[C@H](Cc2ccc(F)cc2)NC(=O)[C@H]([C@@H](C)O)NC(=O)[C@H](CCCCN)NC(=O)[C@@H](Cc2c[nH]c3ccccc23)NC(=O)[C@H](Cc2ccccc2)NC(=O)[C@H](Cc2ccccc2)NC(=O)[C@H](CCCNC(=N)N)NC1=O` [Compound 22, 3-[N-(D-6-methyl-8β-ergolinylmethyl)]-aminopropionyl-psi(CH2NAc)-cyclo(DLys-Arg-Phe-Phe-DTrp-Lys-Thr-4FPhe)], in that order: 200 ± 65 nM, 0.35 ± 0.18 nM, 27.5 ± 6.7 nM, 513 ± 129 nM and 38.7 ± 8.8%.
For `C[C@@H](O)[C@@H]1NC(=O)[C@H](CCCCN)NC(=O)[C@@H](Cc2c[nH]c3ccccc23)NC(=O)[C@H](Cc2ccccc2)NC(=O)[C@H](Cc2ccccc2)NC(=O)[C@H](CCCNC(=N)N)NC(=O)[C@H](NCCCS(=O)(=O)C[C@@H]2C[C@@H]3c4cccc5[nH]cc(c45)C[C@H]3N(C)C2)CCCCNC(=O)[C@H](Cc2ccc(F)cc2)NC1=O` [Compound 48, (D-6-methyl-8β-ergolinylmethyl)-sulfonylpropyl-cyclo(DLys-Arg-Phe-Phe-DTrp-Lys-Thr-4FPhe)], in that order: 19.4 ± 2.8 nM, 0.25 ± 0.1 nM, 23.6 ± 7.9 nM, 78.3 ± 15.2 nM and 76.5 ± 2.8%.
For the molecule `C[C@@H](O)[C@@H]1NC(=O)[C@H](CCCCN)NC(=O)[C@@H](Cc2c[nH]c3ccccc23)NC(=O)[C@H](Cc2ccccc2)NC(=O)[C@H](Cc2ccccc2)NC(=O)[C@H](CCCNC(=N)N)NC(=O)[C@H](NC[C@@H](Cc2ccc(O)cc2)NC(=O)CSC[C@@H]2C[C@@H]3c4cccc5[nH]cc(c45)C[C@H]3N(C)C2)CCCCNC(=O)[C@H](Cc2ccccc2)NC1=O` [Compound 41, Dop1-DTyr-psi(CH2NH)-cyclo(DLys-Arg-Phe-Phe-DTrp-Lys-Thr-Phe)], the Ki in experiment [1] (setting [5]) came to 8.5 ± 3.6 nM; in experiment [4] (CHO-K1 cell membranes, 0.05 nM [125I-Tyr]-seglitide, 60 minutes at 25°C, read-out: hSSTR2 Ki (nM) ± SEM), 0.37 nM. Besides, the Emax in experiment [3] is 91.2%.
For `C[C@@H](O)[C@@H]1NC(=O)[C@H](CCCCN)NC(=O)[C@@H](Cc2c[nH]c3ccccc23)NC(=O)[C@H](Cc2ccccc2)NC(=O)[C@H](Cc2ccccc2)NC(=O)[C@H](CCCNC(=N)N)NC(=O)[C@H](N(CCSC[C@@H]2C[C@@H]3c4cccc5[nH]cc(c45)C[C@H]3N(C)C2)CCSC[C@@H]2C[C@@H]3c4cccc5[nH]cc(c45)C[C@H]3N(C)C2)CCCCNC(=O)[C@H](Cc2ccc(F)cc2)NC1=O` [Compound 39, bis[Dop1-psi(CH2N)]-cyclo(DLys-Arg-Phe-Phe-DTrp-Lys-Thr-4FPhe)] (RFF[dW]KT[Phe(4-F)]; linker N-C via X1), the Ki in experiment [1] is 330 ± 59.5 nM; in experiment [4], 3.72 ± 2.01 nM. The EC50 (usually the concentration at which the effect is half-maximal) in experiment [2] was 25.9 ± 6.9 nM; in experiment [3] it was 114 ± 24.4 nM. Besides, the Emax in experiment [3] amounted to 95.7 ± 2.4%.
The matching figures for `C[C@@H](O)[C@@H]1NC(=O)[C@H](CCCCN)NC(=O)[C@@H](Cc2c[nH]c3ccccc23)NC(=O)[C@H](Cc2ccccc2)NC(=O)[C@H](Cc2ccccc2)NC(=O)[C@H](CCCNC(=N)N)NC(=O)[C@H](NCCSC[C@@H]2C[C@@H]3c4cccc5[nH]cc(c45)C[C@H]3N(C)C2)CCCCNC(=O)[C@H](Cc2ccc(F)c(F)c2)NC1=O` [Compound 6A, Dop1-psi(CH2NH)-cyclo(DLys-Arg-Phe-Phe-DTrp-Lys-Thr-3,4FPhe)]: 16.9 ± 0.2 nM, 0.35 nM, 15.7 ± 4.3 nM, 62.1 ± 16.4 nM and 91.5 ± 3%.
For `CC(=O)N(CCCN(C(C)=O)[C@@H]1CCCCNC(=O)[C@H](Cc2ccc(F)cc2)NC(=O)[C@H]([C@@H](C)O)NC(=O)[C@H](CCCCN)NC(=O)[C@@H](Cc2c[nH]c3ccccc23)NC(=O)[C@H](Cc2ccccc2)NC(=O)[C@H](Cc2ccccc2)NC(=O)[C@H](CCCNC(=N)N)NC1=O)C[C@@H]1C[C@@H]2c3cccc4[nH]cc(c34)C[C@H]2N(C)C1` [Compound 28, 3-[N-acetyl-N-(D-6-methyl-8β-ergolinylmethyl)]-aminopropionyl-psi(CH2NAc)-cyclo(DLys-Arg-Phe-Phe-DTrp-Lys-Thr-4FPhe)], in that order: 39.9 ± 10.4 nM, 0.75 ± 0.27 nM, 11.8 ± 7.6 nM, 265 ± 104 nM and 56 ± 9.1%.
For the molecule `C[C@@H](O)[C@@H]1NC(=O)[C@H](CCCCN)NC(=O)[C@@H](Cc2c[nH]c3ccccc23)NC(=O)[C@H](Cc2ccccc2)NC(=O)[C@H](Cc2ccccc2)NC(=O)[C@H](CCCNC(=N)N)NC(=O)[C@H](NC[C@H](Cc2ccc(O)cc2)NC(=O)CSC[C@@H]2C[C@@H]3c4cccc5[nH]cc(c45)C[C@H]3N(C)C2)CCCNC(=O)[C@H](Cc2ccccc2)NC1=O` [Compound 30, Dop1-Tyr-psi(CH2NH)-cyclo(DOrn-Arg-Phe-Phe-DTrp-Lys-Thr-Phe)], the EC50 in experiment [2] was determined as 13.1 ± 4.2 nM. The molecule also showed a Ki in experiment [4] of 0.4 ± 0.06 nM.
For the molecule `C[C@@H](O)[C@@H]1NC(=O)[C@H](CCCCN)NC(=O)[C@@H](Cc2c[nH]c3ccccc23)NC(=O)[C@H](Cc2ccccc2)NC(=O)[C@H](Cc2ccccc2)NC(=O)[C@H](CCCNC(=N)N)NC(=O)[C@H](N(CCSC[C@@H]2C[C@@H]3c4cccc5[nH]cc(c45)C[C@H]3N(C)C2)CCSC[C@@H]2C[C@@H]3c4cccc5[nH]cc(c45)C[C@H]3N(C)C2)CCCCNC(=O)[C@H](Cc2ccccc2)NC1=O` [Compound 40, bis[Dop1-psi(CH2N)]-cyclo(DLys-Arg-Phe-Phe-DTrp-Lys-Thr-Phe)] (RFF[dW]KTF; linker N-C via X1), the EC50 in experiment [2] was found to be 27 ± 6.5 nM. For the same molecule, in experiment [3], the EC50 stood at 123 ± 6.5 nM and the Emax is 91.5%. The affinity in experiment [4], expressed as Ki, was 3.17 ± 1.41 nM.
As for `C[C@@H](O)[C@@H]1NC(=O)[C@H](CCCCN)NC(=O)[C@@H](Cc2c[nH]c3ccccc23)NC(=O)[C@H](Cc2cccnc2)NC(=O)[C@H](Cc2ccccc2)NC(=O)[C@H](CCCNC(=N)N)NC(=O)[C@H](NC[C@H](Cc2ccc(O)cc2)NC(=O)CSC[C@@H]2C[C@@H]3c4cccc5[nH]cc(c45)C[C@H]3N(C)C2)CCCCNC(=O)[C@H](Cc2ccccc2)NC1=O` [Compound 38, Dop1-Tyr-psi(CH2NH)-cyclo(DLys-Arg-Phe-3Pal-DTrp-Lys-Thr-Phe)], the Ki in experiment [1] (setting [5]) was determined as 179 ± 113 nM. The Emax in experiment [3] was found to be 97.5 ± 0.3%.
For `CC(=O)N(CCCNC(CN[C@@H]1CCCCNC(=O)[C@H](Cc2ccc(F)cc2)NC(=O)[C@H]([C@@H](C)O)NC(=O)[C@H](CCCCN)NC(=O)[C@@H](Cc2c[nH]c3ccccc23)NC(=O)[C@H](Cc2ccccc2)NC(=O)[C@H](Cc2ccccc2)NC(=O)[C@H](CCCNC(=N)N)NC1=O)Cc1ccc(O)cc1)C[C@@H]1C[C@@H]2c3cccc4[nH]cc(c34)C[C@H]2N(C)C1` (single isomer, unassigned) [Compound 28A, 3-[N-acetyl-N-(D-6-methyl-8β-ergolinylmethyl)]-aminopropionyl-psi(CH2NH)-Tyr-psi(CH2NH)-cyclo(DLys-Arg-Phe-Phe-DTrp-Lys-Thr-4FPhe)], the Ki was 14 ± 3.4 nM in experiment [1] and 0.04 ± 0.02 nM in experiment [4]. Also, the Emax in experiment [3] was 79.7 ± 11.4%.
With `C[C@@H](O)[C@@H]1NC(=O)[C@H](CCCCN)NC(=O)[C@@H](Cc2c[nH]c3ccccc23)NC(=O)[C@H](Cc2ccccc2)NC(=O)[C@H](Cc2ccccc2)NC(=O)[C@H](CCCNC(=N)N)NC(=O)[C@H](NC(=O)[C@H](CCCCNC(=O)CSC[C@@H]2C[C@@H]3c4cccc5[nH]cc(c45)C[C@H]3N(C)C2)NC(=O)CSC[C@@H]2C[C@@H]3c4cccc5[nH]cc(c45)C[C@H]3N(C)C2)CCNC(=O)[C@H](Cc2ccccc2)NC1=O` [Reference Compound C, Dopl-Lys(Dopl)-cyclo(DDab-Arg-Phe-Phe-DTrp-Lys-Thr-Phe), reference compound] (X2-K(X2)[dDab]RFF[dW]KTF; lactam 2-C (inferred)), the Emax is 60.6 ± 3.2% in experiment [2] (read-out: hSSTR2 %Emax ± SEM) and 101 ± 0.8% in experiment [3].
